Measured values published in BindingDB's records for doi:10.1124/jpet.106.101428 (Eli Lilly, 2006).
pKi: −log10 of the molar value.

What was measured:
[1] = molecular target: Glutamate receptor 4 (Homo sapiens, UniProt P48058)
[2] = molecular target: Glutamate receptor ionotropic, kainate 2 (Homo sapiens, UniProt Q13002)
[3] = molecular target: T1, Glutamate receptor ionotropic, kainate 5 (Homo sapiens, UniProt Q16478)
T1 sequence (Q16478 whole entry): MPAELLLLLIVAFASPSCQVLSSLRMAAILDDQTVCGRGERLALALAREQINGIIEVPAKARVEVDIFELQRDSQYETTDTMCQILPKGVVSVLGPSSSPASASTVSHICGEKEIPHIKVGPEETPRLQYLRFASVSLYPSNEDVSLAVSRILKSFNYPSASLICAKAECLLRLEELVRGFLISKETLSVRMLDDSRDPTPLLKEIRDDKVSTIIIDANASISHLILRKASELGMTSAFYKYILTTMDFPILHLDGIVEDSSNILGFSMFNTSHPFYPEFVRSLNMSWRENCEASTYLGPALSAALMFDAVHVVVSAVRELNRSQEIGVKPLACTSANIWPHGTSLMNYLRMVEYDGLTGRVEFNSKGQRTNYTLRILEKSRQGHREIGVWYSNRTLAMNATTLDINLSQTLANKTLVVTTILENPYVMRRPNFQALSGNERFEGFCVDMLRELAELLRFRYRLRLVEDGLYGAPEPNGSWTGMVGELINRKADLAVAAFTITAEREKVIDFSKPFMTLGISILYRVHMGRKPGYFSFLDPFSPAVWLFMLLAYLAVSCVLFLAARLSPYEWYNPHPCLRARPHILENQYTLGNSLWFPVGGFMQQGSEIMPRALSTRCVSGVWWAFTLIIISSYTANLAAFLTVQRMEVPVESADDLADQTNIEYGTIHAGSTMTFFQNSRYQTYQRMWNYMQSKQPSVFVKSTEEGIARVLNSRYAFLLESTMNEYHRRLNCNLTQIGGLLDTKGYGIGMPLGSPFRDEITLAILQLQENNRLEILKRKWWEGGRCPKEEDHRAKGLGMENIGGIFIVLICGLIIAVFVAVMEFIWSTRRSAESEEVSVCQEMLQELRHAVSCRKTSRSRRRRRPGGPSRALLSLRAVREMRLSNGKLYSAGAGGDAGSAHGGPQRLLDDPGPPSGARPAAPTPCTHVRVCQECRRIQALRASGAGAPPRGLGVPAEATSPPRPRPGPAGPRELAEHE

[4] = molecular target: Glutamate receptor ionotropic, kainate 3 (Homo sapiens, UniProt Q13003)
Sequence of Glutamate receptor ionotropic, kainate 3 (Q13003 whole entry): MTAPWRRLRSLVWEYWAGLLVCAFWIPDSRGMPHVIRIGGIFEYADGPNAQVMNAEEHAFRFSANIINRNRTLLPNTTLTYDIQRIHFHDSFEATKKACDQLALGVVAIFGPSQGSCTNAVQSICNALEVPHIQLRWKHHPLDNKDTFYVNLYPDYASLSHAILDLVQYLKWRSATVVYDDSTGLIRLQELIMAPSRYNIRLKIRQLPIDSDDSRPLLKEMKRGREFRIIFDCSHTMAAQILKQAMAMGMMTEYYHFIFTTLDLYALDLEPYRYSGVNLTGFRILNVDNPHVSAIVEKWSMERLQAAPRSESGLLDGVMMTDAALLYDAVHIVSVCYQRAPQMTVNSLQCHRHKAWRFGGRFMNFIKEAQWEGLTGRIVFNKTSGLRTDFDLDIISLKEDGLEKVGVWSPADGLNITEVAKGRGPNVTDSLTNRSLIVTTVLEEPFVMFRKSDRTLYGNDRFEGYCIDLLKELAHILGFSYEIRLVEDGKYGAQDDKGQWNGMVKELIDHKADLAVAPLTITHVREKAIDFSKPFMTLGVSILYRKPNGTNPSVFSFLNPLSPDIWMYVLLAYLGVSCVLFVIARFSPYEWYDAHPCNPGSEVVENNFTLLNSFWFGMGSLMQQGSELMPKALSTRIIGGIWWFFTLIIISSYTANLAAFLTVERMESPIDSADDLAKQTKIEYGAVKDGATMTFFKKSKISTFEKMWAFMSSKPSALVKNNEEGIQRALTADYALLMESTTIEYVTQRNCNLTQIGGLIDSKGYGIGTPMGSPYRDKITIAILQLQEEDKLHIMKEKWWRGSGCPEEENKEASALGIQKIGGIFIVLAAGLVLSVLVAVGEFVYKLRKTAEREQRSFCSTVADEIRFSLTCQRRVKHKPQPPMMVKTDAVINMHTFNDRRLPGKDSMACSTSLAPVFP

[5] = molecular target: Glutamate receptor 2 (Homo sapiens, UniProt P42262)
Sequence of Glutamate receptor 2 (P42262 whole entry): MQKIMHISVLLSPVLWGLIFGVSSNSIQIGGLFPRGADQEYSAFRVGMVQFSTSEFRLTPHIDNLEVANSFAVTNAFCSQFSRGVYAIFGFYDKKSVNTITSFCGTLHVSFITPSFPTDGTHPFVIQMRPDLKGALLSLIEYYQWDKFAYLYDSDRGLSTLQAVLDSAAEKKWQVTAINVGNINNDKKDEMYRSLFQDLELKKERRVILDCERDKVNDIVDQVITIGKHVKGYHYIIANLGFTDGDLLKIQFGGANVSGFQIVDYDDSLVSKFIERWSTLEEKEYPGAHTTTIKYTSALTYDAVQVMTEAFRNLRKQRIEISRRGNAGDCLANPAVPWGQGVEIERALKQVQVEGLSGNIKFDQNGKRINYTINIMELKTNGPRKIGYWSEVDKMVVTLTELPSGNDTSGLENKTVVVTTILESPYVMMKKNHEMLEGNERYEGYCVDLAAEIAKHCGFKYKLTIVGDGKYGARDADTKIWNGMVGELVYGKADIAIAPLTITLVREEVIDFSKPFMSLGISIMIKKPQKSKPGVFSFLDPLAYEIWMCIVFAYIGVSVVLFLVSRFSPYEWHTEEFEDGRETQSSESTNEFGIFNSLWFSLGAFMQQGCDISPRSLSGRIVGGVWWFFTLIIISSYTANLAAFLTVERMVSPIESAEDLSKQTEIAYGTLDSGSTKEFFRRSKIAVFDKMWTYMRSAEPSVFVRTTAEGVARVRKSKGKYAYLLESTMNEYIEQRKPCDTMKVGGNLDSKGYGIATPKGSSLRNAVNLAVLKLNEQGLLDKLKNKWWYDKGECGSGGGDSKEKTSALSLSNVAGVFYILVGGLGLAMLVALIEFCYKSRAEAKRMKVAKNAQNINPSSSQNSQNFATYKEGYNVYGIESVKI

[6] = molecular target: Glutamate receptor 1 (Homo sapiens, UniProt P42261)
Sequence of Glutamate receptor 1 (P42261 whole entry): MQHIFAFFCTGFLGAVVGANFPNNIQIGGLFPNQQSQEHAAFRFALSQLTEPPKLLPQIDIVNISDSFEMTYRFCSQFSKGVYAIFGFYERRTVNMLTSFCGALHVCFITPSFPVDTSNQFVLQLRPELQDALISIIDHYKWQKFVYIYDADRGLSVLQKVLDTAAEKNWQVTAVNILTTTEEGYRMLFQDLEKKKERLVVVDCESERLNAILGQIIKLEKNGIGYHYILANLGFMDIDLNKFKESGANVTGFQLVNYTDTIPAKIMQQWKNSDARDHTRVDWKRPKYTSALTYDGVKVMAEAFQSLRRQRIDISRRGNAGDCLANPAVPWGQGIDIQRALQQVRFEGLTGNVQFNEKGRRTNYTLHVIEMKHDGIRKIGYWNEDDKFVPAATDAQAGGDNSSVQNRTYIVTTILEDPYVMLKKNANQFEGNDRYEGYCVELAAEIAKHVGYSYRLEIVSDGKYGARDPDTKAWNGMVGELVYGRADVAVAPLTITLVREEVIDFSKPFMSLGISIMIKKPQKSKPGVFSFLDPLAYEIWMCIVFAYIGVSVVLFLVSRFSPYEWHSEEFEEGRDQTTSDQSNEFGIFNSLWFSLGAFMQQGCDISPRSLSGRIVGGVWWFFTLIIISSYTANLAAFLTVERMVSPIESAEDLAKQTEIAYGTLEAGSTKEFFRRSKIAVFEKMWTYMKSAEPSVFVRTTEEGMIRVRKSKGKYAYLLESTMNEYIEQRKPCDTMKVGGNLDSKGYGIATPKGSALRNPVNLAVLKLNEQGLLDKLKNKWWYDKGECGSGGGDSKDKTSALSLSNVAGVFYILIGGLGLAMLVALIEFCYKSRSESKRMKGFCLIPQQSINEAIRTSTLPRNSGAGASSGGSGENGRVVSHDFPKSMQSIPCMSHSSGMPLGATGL

Sequence of Glutamate receptor ionotropic, kainate 2 (Q13002 whole entry): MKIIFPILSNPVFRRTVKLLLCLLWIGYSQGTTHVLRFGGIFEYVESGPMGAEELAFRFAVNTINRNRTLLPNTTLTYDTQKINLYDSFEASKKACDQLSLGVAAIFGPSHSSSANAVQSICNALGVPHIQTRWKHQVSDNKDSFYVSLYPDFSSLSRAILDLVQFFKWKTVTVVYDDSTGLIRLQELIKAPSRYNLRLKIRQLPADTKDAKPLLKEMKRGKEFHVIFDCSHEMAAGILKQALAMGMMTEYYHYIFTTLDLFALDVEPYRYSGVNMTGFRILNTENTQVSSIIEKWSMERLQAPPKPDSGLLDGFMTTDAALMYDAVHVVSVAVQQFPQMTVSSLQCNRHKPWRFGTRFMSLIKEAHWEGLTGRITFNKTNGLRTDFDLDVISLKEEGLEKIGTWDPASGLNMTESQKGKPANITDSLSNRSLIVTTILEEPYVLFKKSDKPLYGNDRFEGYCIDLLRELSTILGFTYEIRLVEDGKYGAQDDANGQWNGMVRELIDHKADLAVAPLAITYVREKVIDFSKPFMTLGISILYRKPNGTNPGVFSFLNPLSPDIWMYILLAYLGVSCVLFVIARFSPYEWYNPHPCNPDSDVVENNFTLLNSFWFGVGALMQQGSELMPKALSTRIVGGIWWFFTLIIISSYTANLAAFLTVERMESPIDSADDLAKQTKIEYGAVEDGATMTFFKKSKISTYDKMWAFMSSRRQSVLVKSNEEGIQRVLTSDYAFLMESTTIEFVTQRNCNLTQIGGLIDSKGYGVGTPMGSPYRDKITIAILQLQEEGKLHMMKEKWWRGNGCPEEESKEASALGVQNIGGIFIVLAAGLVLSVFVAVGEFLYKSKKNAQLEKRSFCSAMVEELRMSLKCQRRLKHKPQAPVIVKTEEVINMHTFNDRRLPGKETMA
Sequence of Glutamate receptor 4 (P48058 whole entry): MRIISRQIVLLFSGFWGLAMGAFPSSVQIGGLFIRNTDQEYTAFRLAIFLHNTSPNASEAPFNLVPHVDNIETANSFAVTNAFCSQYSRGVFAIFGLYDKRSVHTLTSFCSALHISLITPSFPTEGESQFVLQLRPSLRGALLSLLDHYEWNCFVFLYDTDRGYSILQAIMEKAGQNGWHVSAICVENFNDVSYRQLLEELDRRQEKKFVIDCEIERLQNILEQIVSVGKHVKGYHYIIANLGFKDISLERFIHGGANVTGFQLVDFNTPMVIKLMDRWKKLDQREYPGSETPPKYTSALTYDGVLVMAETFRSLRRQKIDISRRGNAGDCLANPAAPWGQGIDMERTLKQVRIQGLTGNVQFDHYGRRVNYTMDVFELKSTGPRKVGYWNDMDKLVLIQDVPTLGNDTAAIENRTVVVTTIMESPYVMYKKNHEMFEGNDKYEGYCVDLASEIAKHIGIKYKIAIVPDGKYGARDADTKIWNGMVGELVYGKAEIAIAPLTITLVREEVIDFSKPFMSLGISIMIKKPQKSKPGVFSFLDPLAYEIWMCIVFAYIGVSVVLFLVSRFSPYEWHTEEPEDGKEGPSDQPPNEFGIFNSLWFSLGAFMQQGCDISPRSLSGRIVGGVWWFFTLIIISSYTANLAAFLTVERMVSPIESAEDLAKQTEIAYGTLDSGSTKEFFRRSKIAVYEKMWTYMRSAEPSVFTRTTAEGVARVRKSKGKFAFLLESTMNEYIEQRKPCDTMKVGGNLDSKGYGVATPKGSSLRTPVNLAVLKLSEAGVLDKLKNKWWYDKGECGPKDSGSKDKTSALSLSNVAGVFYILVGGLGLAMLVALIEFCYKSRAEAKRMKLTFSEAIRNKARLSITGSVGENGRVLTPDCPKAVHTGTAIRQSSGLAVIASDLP

pKi [1]	pKi [2]	pKi [3]	pKi [4]	pKi [5]	pKi [6]	SMILES
< 5.00	< 5.00	5.38	< 5.00			O=C(O)[C@@H]1C[C@H]2C[C@@H](CCc3nn[nH]n3)CC[C@H]2CN1
< 5.00	< 5.00	5.40	< 5.00	< 5.00	< 5.00	O=C(O)c1ccc(C[C@H]2CC[C@H]3CN[C@H](C(=O)O)C[C@H]3C2)cc1 [LY 382884]
		5.81				O=C(O)[C@@H]1C[C@H]2C[C@@H](Nc3ccccc3-c3nnn[nH]3)CC[C@H]2CN1 [LY 457691]
		5.51		< 5.00		O=C(O)[C@@H]1C[C@H]2CC(COCc3nnn[nH]3)CC[C@H]2CN1 (some centres undefined) [LY-294486]
		5.47				O=C(O)[C@@H]1C[C@H]2C[C@@H](CS(=O)(=O)c3nnc[nH]3)CC[C@H]2CN1 [LY-302679]
		5.77				O=C(O)[C@@H]1C[C@H]2C[C@@H](Oc3ccccc3-c3nnn[nH]3)CC[C@H]2CN1 [LY-458545]
< 5.00	< 5.00	7.30		< 5.00	< 5.00	O=C(O)C1CC(F)(F)CN1C[C@H]1CC[C@H]2CN[C@H](C(=O)O)C[C@H]2C1 (some centres undefined) [LY-466195]

SMILES	pKi [1]	pKi [2]	pKi [3]	pKi [4]	pKi [5]	pKi [6]
CCC(C)OC(=O)[C@@H]1C[C@H]2C[C@@H](Oc3ccccc3-c3nnn[nH]3)CC[C@H]2CN1 (some centres undefined) [LY-467711]			5.13		< 5.00	
CCC(CC)COC(=O)[C@@H]1C[C@H]2C[C@@H](Nc3ccccc3-c3nnn[nH]3)CC[C@H]2CN1 [LY-525327]			< 5.00		< 5.00	
